# Reference: US11839679B2, “Gamma-diketones for treatment and prevention of aging skin and wrinkles” (BioSplice Therapeutics, Inc., priority 2014, dated 2023)
# Tested on: fine lines, wrinkles in the outer canthus of the eyes (crow's feet area)
# Experiment: Change in Roughness and Wrinkle Depth via Visioscan, Example 2
# Type: in vivo, human
# Conditions: Topical 0.05% in Oil (Cohort 2), 21 test subjects
# From the text: Surface Evaluation of Living Skin Visioscan: The Visioscan (Courage and Khazaka) took a direct image of the living skin using a measuring head containing a CCD-camera and two metal halogen lamps positioned opposite each other in order to ensure even illumination of the measuring field on the skin (Skin Pharmacol Appl Skin Physiol (1999), 12(1-2), 1-11 and Cosmetic & Toiletries magazine (2009), 124(6), 51-54). The grey level distribution of the pixels in the image correspond to different phenomena (white pixels represent desquamation on the skin, dark pixels represent lines and wrinkles). The software with the Visioscan automatically calculates skin smoothness, skin roughness, scaliness and wrinkle parameters. Visioscan images were taken at the following time points: Baseline Day 0 (beginning of the study), Week 2, Week 4, Week 8, and Week 12 (end of the test).
# The source data was Visioscan and PhotoGrammetrix Image Analysis readings along with subjective assessments, which were totaled and reported as average scores. Photographs were placed side by side as to compare the photographs of before and after application of the test product in the eye area. Wrinkle reduction analysis source data consisted of crow's feet area quantification in relative units (px), collected at baseline and, the week 2, 4, 8 and 12 evaluations. The data obtained via Visioscan and from PhotoGrammetrix Image Analysis was quoted as % differences from baseline at each of the previously described time points. A paired t-test analysis was conducted in order to compare the results of post test product application measurements to baseline measurements where applicable. Statistical significance was established if p≤(α=0.05) was calculated.
# Four groups of women were recruited to evaluate and compare the efficacy of four anti-aging test products (targeting the periorbital eye area) intended to reduce the appearance of fine lines, wrinkles in the outer canthus of the eyes (crow's feet area) over a 12 week period. Wrinkle assessment was conducted instrumentally using a Visioscan image analysis system. Effectiveness of the test product was evaluated using panelist self-assessment via questionnaire responses. Each stage in the progression of treatments was photographically documented using High Resolution Scientifically Matched Photography technique. Image analysis was utilized to quantify changes in fine lines and crow's feet condition observed in the Scientifically Matched Photographs.
# Subject Selection: • Number: Eighty three subjects (twenty or twenty one per group) to complete the study. • Sex: Females • Race: Caucasian/Asian/Hispanic • Age Range: 40 through 60 years old
# Test samples: • Topical 0.15% of Compound #222 in Oil (a 50/50 mixture of Propylene Glycol Dicaprylate/Dicaprate and Caprylic/Capric Triglyceride) (Cohort 1) • Topical 0.05% of Compound #222 in Oil (a 50/50 mixture of Propylene Glycol Dicaprylate/Dicaprate and Caprylic/Capric Triglyceride) (Cohort 2) • Topical 0.15% of Compound #222 in PEG400 (Cohort 3) • Topical 0.05% of Compound #222 in PEG400 (Cohort 4)
# The testing protocol and evaluation was the same as in Example 1.
smiles,measurement,setting,value
O=C(CCC(=O)c1ccc2c(c1)OCO2)c1ccccc1 [#222],"% Change in Roughness, Mean",Week 8 vs baseline,−32.9%
same,"% Change in Roughness, Median",Week 8 vs baseline,−33.9%
same,"% Change in Wrinkle Depth, Mean",Week 8 vs baseline,−58.0%
same,"% Change in Wrinkle Depth, Median",Week 8 vs baseline,−59.3%
same,"Change in Roughness, Mean",Week 8 vs baseline,−0.85
same,"Change in Roughness, Median",Week 8 vs baseline,−0.67
same,"Change in Wrinkle Depth (×10^4), Mean",Week 8 vs baseline,−0.89 ×10^4
same,"Change in Wrinkle Depth (×10^4), Median",Week 8 vs baseline,−0.79 ×10^4
same,"% Change in Roughness, Mean",Week 12 vs baseline,−39.3%
same,"% Change in Roughness, Median",Week 12 vs baseline,−40.9%
same,"% Change in Wrinkle Depth, Mean",Week 12 vs baseline,−54.1%
same,"% Change in Wrinkle Depth, Median",Week 12 vs baseline,−63.5%
same,"Change in Roughness, Mean",Week 12 vs baseline,−1.01
same,"Change in Roughness, Median",Week 12 vs baseline,−0.79
same,"Change in Wrinkle Depth (×10^4), Mean",Week 12 vs baseline,−0.92 ×10^4
same,"Change in Wrinkle Depth (×10^4), Median",Week 12 vs baseline,−0.85 ×10^4
